Counter-ions that a name gives are not always drawn. Like-named read-outs stand apart in the source and are kept apart here.

Assay [1] relates to HeLa. The assay is described as follows: Proliferation assay (HeLa cell line).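 Also: crystal violet staining of cell number, scaled between a plate stained before dosing (0%) and cells left untreated (100%), compounds tested at 0.001-10 µM, IC50 via 4-parameter fit.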 The settings on record: Homo sapiens, 96 h, read-out: Biological Assay 2: Proliferation assay (HeLa cell line) median IC50.
Protocol: Cultivated tumor cells (cells were ordered from ATCC, except HeLa-MaTu and HeLa-MaTu-ADR, which were ordered from EPO-GmbH, Berlin) were plated at a density of 1000 to 5000 cells/well, depending on the growth rate of the respective cell line, in a 96-well multititer plate in 200 μL of their respective growth medium supplemented 10% fetal calf serum. After 24 hours, the cells of one plate (zero-point plate) were stained with crystal violet (see below), while the medium of the other plates was replaced by fresh culture medium (200 μL), to which the test substances were added in various concentrations (0 μM, as well as in the range of 0.001-10 μM; the final concentration of the solvent dimethyl sulfoxide was 0.5%). The cells were incubated for 4 days in the presence of test substances. Cell proliferation was determined by staining the cells with crystal violet: the cells were fixed by adding 20 μL measuring point of an 11% glutaric aldehyde solution for 15 minutes at room temperature. After three washing cycles of the fixed cells with water, the plates were dried at room temperature. The cells were stained by adding 100 μL/measuring point of a 0.1% crystal violet solution (pH 3.0). After three washing cycles of the stained cells with water, the plates were dried at room temperature. The dye was dissolved by adding 100 μl/measuring point of a 10% acetic acid solution. […] The change of cell number, in percent, was calculated by normalization of the measured values to the absorbtion values of the zero-point plate (=0%) and the absorbtion of the untreated (0 μm) cells (=100%). The IC50 values were determined by means of a 4 parameter fit.
The target of assay [2] is Bub1 (Homo sapiens, UniProt O43683). The experiment in a line: Formation-Assay: phosphorylation status of histone 2A by inhibition of kinase activity of Bub1. Particulars: Biological Assay 4.1: H2A Formation IC50, co-treatment with Nocodazole 1 μg/ml, 16 h. In kind it is cell-based. A digest of the protocol: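 Cells co-treated 16 h with Nocodazole (1 μg/ml) and compound (3 nM–10 μM), then fixed and immunostained for phospho-H2A, read by infrared imaging (800 nm) normalised to cell stain (700 nm). Nocodazole-only set as 100%, untreated cells as 0%.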

The target in assay [3] is T1, catalytic domain of human Bub1 (amino acids 704-1085) (Homo sapiens, UniProt O43683).
T1 construct: catalytic domain of human Bub1 (amino acids 704-1085); His6 (N); made in house; host or cells: Hi5 insect cells
The experiment in a line: Bub1 kinase assay (TR-FRET). In kind it is biochemical. A digest of the protocol: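 Compounds from 2 mM DMSO stocks, serially diluted 1:3.4, incubated with enzyme at 22° C for 60 min. Stopped with EDTA, then 1 h with streptavidin-XL665, anti-phosphoserine antibody and Eu-labelled anti-mouse IgG. Phosphorylated biotin-peptide read by TR-FRET; IC50 by 4-parameter logistic fit.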

The subject of assay [4] is HeLa human cervical tumor cells. The experiment in a line: Proliferation assay (HeLa+Paclitaxel).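 Also: compounds at 0.001-10 µM added 4 h after paclitaxel, 92 h exposure, absorbance normalized to zero-point plate (0%) and untreated cells (100%), IC50 from 4-parameter fit.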 Particulars: read-out: Biological Assay 3: HeLa + Paclitaxel IC50, 3 nM paclitaxel, crystal violet.
Where [5] appears, read: Biological Assay 1: Bub1 kinase assay median IC50, 10 μM ATP.
Where [6] appears, read: 10 μM ATP, read-out: Biological Assay 1: Bub1 kinase assay median IC50.

Sequence of Bub1 (O43683 whole entry): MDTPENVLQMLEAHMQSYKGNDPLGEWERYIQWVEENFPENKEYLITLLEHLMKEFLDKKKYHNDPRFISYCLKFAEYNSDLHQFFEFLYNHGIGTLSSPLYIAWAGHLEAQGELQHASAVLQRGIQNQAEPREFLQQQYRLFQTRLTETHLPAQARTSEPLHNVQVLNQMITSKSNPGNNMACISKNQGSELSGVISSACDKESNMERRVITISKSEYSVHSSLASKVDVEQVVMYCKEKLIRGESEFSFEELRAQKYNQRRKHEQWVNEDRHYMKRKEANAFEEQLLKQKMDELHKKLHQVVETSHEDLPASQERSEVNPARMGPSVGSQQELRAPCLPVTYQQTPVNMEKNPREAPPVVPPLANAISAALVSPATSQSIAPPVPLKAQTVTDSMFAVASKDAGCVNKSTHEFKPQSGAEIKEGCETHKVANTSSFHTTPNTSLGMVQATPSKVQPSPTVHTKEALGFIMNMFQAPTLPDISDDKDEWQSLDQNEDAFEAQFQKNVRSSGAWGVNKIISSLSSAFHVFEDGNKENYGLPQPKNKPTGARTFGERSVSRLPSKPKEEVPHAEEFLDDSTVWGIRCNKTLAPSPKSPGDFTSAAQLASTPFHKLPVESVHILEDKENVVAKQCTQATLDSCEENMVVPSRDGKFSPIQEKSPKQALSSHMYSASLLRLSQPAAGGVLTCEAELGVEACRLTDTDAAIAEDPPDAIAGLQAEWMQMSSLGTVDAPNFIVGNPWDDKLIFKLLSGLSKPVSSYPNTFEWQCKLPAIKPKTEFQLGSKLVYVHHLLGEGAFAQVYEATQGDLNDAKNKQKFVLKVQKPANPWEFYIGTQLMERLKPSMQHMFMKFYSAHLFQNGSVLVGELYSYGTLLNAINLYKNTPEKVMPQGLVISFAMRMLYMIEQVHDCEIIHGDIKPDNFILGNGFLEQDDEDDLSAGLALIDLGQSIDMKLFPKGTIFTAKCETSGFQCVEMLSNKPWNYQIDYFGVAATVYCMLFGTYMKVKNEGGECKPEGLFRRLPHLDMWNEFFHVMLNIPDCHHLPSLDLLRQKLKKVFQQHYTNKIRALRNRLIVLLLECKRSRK
T1 sequence (O43683 704-1085): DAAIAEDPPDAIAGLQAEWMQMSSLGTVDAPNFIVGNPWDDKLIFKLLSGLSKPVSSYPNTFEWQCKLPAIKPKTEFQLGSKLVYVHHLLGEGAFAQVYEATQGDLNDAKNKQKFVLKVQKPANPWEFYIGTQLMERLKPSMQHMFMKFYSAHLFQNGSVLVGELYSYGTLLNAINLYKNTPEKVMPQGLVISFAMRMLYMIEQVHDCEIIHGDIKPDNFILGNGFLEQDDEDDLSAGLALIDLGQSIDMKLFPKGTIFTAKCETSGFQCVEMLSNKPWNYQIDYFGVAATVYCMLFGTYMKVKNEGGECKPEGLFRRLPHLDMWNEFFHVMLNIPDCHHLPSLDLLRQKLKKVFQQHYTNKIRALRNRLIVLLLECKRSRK

Take `CCOc1cc(F)c(Cn2nc(-c3nc4c(c(Nc5ccncc5)n3)CNC4)c3ccccc32)c(F)c1` [Example 2-9-14, 2-[1-(4-ethoxy-2,6-difluorobenzyl)-1H-indazol-3-yl]-N-(pyridin-4-yl)-6,7-dihydro-5H-pyrrolo[3,4-d]pyrimidin-4-amine, salt with hydrochloric acid]: the IC50 in assay [1] stood at 4300 nM; in assay [2], 11 nM; in assay [3] (setting [5]), 11 nM; in assay [4], 170 nM.

In the case of `CCOc1cc(F)c(Cn2nc(-c3nc4c(c(Nc5ncncn5)n3)CCC4)c3ccccc32)c(F)c1` [Example 2-12-52, 2-[1-(4-ethoxy-2,6-difluorobenzyl)-1H-indazol-3-yl]-N-(1,3,5-triazin-2-yl)-6,7-dihydro-5H-cyclopenta[d]pyrimidin-4-amine], the IC50 was found to be 1100 nM in assay [1], 25 nM in assay [2], 100 nM in assay [3] (setting [6]) and 990 nM in assay [4].

On to `CCOc1cc(F)c(Cn2nc(-c3nc(Nc4ccncc4OC)cc(C(F)(F)F)n3)c3ccccc32)c(F)c1` [Example 2-12-81, 2-[1-(4-ethoxy-2,6-difluorobenzyl)-1H-indazol-3-yl]-N-(3-methoxypyridin-4-yl)-6-(trifluoromethyl)pyr-imidin-4-amine], for which the IC50 in assay [1] worked out at 1600 nM; in assay [2], 13 nM; in assay [3] (setting [6]), 19 nM; in assay [4], 220 nM.

On to `CCOc1cc(F)c(Cn2nc(-c3nc4c(c(Nc5cnnc(Cl)c5)n3)CCC4)c3ccccc32)c(F)c1` [Example 2-12-53, N-(6-chloropyridazin-4-yl)-2-[1-(4-ethoxy-2,6-difluorobenzyl)-1H-indazol-3-yl]-6,7-dihydro-5H-cyclopenta[d]pyrimidin-4-amine], for which the IC50 is above 10000 nM in assay [1], 140 nM in assay [2], 660 nM in assay [3] (setting [6]) and 510 nM in assay [4].

For `CCOc1cc(F)c(Cn2nc(-c3nc4c(c(Nc5ccnc(C)n5)n3)CCC4)c3ccccc32)c(F)c1` [Example 2-12-54, 2-[1-(4-ethoxy-2,6-difluorobenzyl)-1H-indazol-3-yl]-N-(2-methylpyrimidin-4-yl)-6,7-dihydro-5H-cyclopenta[d]pyrimidin-4-amine], the IC50 is 3300 nM in assay [1], 14 nM in assay [2], 31 nM in assay [3] (setting [5]) and 180 nM in assay [4].

Regarding `CCOc1cc(F)c(Cn2nc(-c3ncc(CCCO)c(Nc4ccncc4)n3)c3ccccc32)c(F)c1` [Example 2-13-1, 3-{2-[1-(4-ethoxy-2,6-difluorobenzyl)-1H-indazol-3-yl]-4-(pyridin-4-ylamino)pyrimidin-5-yl}propan-1-ol], the IC50 in assay [1] was determined as 3700 nM; in assay [2] it was 8.2 nM; in assay [3] (setting [5]), 5.3 nM; in assay [4] it was 370 nM.

In the case of `CCOc1cc(F)c(Cn2nc(-c3nc(CC)cc(Nc4ccncc4)n3)c3ccccc32)c(F)c1` [Example 2-12-9, 2-[1-(4-ethoxy-2,6-difluorobenzyl)-1H-indazol-3-yl]-6-ethyl-N-(pyridin-4-yl)pyrimidin-4-amine], the IC50 is 3700 nM in assay [1], 11 nM in assay [2], 21 nM in assay [3] (setting [5]) and 540 nM in assay [4].

For `CCOc1cc(F)c(Cn2nc(-c3ncc(CCN)c(Nc4ccnc(C(F)F)c4)n3)c3ccccc32)c(F)c1` [Example 2-9-10, 5-(2-aminoethyl)-N-[2-(difluorometh-yl)pyridin-4-yl]-2-[1-(4-ethoxy-2,6-difluorobenzyl)-1H-indazol-3-yl]pyrimidin-4-amine, salt with hydrochloric acid], the IC50 in assay [1] was found to be 1000 nM; in assay [2] it was 1500 nM; in assay [3] (setting [6]) it was 7.1 nM; in assay [4] it was 54 nM.

Take `OCCOc1cc(F)c(Cn2nc(-c3nc4c(c(Nc5ccnnc5)n3)CCC4)c3ccccc32)c(F)c1` [Example 2-4-10, 2-[3,5-difluoro-4-({3-[4-(pyridazin-4-ylamino)-6,7-dihydro-5H-cyclopenta[d]pyrimidin-2-yl]-1H-indazol-1-yl}methyl)phenoxy]ethanol, salt with hydrochloric acid]: the IC50 in assay [1] was above 10000 nM; in assay [2] it was 10 nM; in assay [3] (setting [5]), 18 nM; in assay [4], 1200 nM.

In the case of `CCOc1cc(F)c(Cn2nc(-c3nc4c(c(Nc5ccnc(C)n5)n3)CC(C)(C)CC4)c3ccccc32)c(F)c1` [Example 2-12-66, 2-[1-(4-ethoxy-2,6-difluorobenzyl)-1H-indazol-3-yl]-6,6-dimethyl-N-(2-methylpyrimidin-4-yl)-5,6,7,8-tetrahydroquinazolin-4-amine], the IC50 in assay [1] was above 10000 nM; in assay [2], 22 nM; in assay [3] (setting [6]), 98 nM; in assay [4], 100 nM.

Turning to `CCOc1cc(F)c(Cn2nc(-c3ncc(CN4CC(F)(F)C4)c(Nc4ccncc4)n3)c3ccccc32)c(F)c1` [Example 2-2-19, 5-[(3,3-difluoroazetidin-1-yl)methyl]-2-[1-(4-ethoxy-2,6-difluorobenzyl)-1H-indazol-3-yl]-N-(pyridin-4-yl)pyrimidin-4-amine], the IC50 stood at 5400 nM in assay [1], 1800 nM in assay [2], 28 nM in assay [3] (setting [5]) and 630 nM in assay [4].

Take `CCOc1cc(F)c(Cn2nc(-c3ncc(C4CCN(CC(F)(F)F)CC4)c(Nc4ccnc(C)c4)n3)c3ccccc32)c(F)c1` [Example 2-20-5, 2-[1-(4-ethoxy-2,6-difluorobenzyl)-1H-indazol-3-yl]-N-(2-methylpyridin-4-yl)-5-[1-(2,2,2-trifluoroethyl)piperidin-4-yl]pyrimidin-4-amine]: the IC50 amounted to 3600 nM in assay [1], 0.5 nM in assay [2], 68 nM in assay [3] (setting [5]) and 210 nM in assay [4].

For `CCOc1cc(F)c(Cn2nc(-c3nc(CN4CCOCC4)cc(Nc4ccnc(S(C)(=O)=O)c4)n3)c3ccccc32)c(F)c1` [Example 2-12-33, 2-[1-(4-ethoxy-2,6-difluorobenzyl)-1H-indazol-3-yl]-N-[2-(methylsulfonyl)pyridin-4-yl]-6-(morpholin-4-ylmethyl)pyrimidin-4-amine], the IC50 in assay [1] is 8300 nM; in assay [2], 370 nM; in assay [3] (setting [6]) it was 520 nM; in assay [4], 400 nM.

As to `CCOc1cc(F)c(Cn2nc(-c3nc4c(c(Nc5ccnc(C(F)F)c5)n3)CCCC4)c3ccccc32)c(F)c1` [Example 2-19-19, N-[2-(difluoromethyl)pyridin-4-yl]-2-[1-(4-ethoxy-2,6-difluorobenzyl)-1H-indazol-3-yl]-5,6,7,8-tetrahydroquinazolin-4-amine], the IC50 was above 10000 nM in assay [1], 7.3 nM in assay [2], 19 nM in assay [3] (setting [6]) and 690 nM in assay [4].

As for `CCOc1cc(F)c(Cn2nc(-c3nc(Nc4ccnc(C)n4)cc(C(F)(F)F)n3)c3ccccc32)c(F)c1` [Example 2-12-83, 2-[1-(4-ethoxy-2,6-difluorobenzyl)-1H-indazol-3-yl]-N-(2-methylpyrimidin-4-yl)-6-(trifluoromethyl)pyr-imidin-4-amine], the IC50 is above 10000 nM in assay [1], 31 nM in assay [2], above 20000 nM in assay [3] (setting [5]) and 350 nM in assay [4].

The values above are taken from patent US20170275270A1, “BENZYL SUBSTITUTED INDAZOLES” (Bayer Pharma Aktiengesellschaft, priority 2014, published 2017).
